# Measured values from US9884832B2 (priority 2011, dated 2018).
# Key:
# [1] = target: AM2 S31N (serine→asparagine mutation at residue 31 in the M2 protein) (Influenza A virus, UniProt P0DOF5, S31N); type: cell-based, influenza virus A/Udorn/72
# [2] = target: AM2 V27A (valine→alanine mutation at residue 27 in the M2 protein) (Influenza A virus, UniProt P0DOF5, V27A); type: cell-based, influenza virus A/Udorn/72
SMILES,S31N OOcyte Inhibition at 100 uM (%) [1],V27A OOcyte Inhibition at 100 uM (%) [2]
Cc1csc2sc(CNC34CC5CC(CC(C5)C3)C4)c(C)c12 [Example 176a],B (key: (A)=31-95%; (B)=0-30%),B (key: (A)=31-95%; (B)=0-30%)
"Cc1c(CNC23CC4CC(CC(C4)C2)C3)sc2ccccc12 [Example 177a, Adamantan-1-yl-(3-methyl-benzo[b]thiophen-2-ylmethyl)-amine]",B (key: (A)=31-95%; (B)=0-30%),B (key: (A)=31-95%; (B)=0-30%)
Oc1ccc2[nH]c(CNC34CC5CC(CC(C5)C3)C4)cc2c1 [Example 179a],B (key: (A)=31-95%; (B)=0-30%),B (key: (A)=31-95%; (B)=0-30%)
"COc1ccc2cc(CNC34CC5CC(CC(C5)C3)C4)sc2c1 [Example 185a, N-((6-methoxybenzo[b]thiophen-2-yl)methyl)adamantan-1-amine]",A (key: (A)=31-95%; (B)=0-30%),B (key: (A)=31-95%; (B)=0-30%)
"COc1ccc2cc(CNC34CC5CC(CC(C5)C3)C4)[nH]c2c1 [Example 186a, N-((6-methoxy-1H-indol-2-yl)methyl)adamantan-1-amine]",A (key: (A)=31-95%; (B)=0-30%),B (key: (A)=31-95%; (B)=0-30%)
"OC12CC3CC(C1)CC(NCc1cccs1)(C3)C2 [Example 187a, 3-[(Thiophen-2-ylmethyl)-amino]adamantan-1-ol]",A (key: (A)=31-95%; (B)=0-30%),B (key: (A)=31-95%; (B)=0-30%)
"OC12CC3CC(C1)CC(NCc1ccc(-c4ccccc4)s1)(C3)C2 [Example 191a, 3-[(5-Phenyl-thiophen-2-ylmethyl)-amino]adamantan-1-ol]",A (key: (A)=31-95%; (B)=0-30%),B (key: (A)=31-95%; (B)=0-30%)
"C(=C\c1ccccc1)/CNC12CC3CC(CC(C3)C1)C2 [Example 199a, N-cinnamyladamantan-1-amine]",A (key: (A)=31-95%; (B)=0-30%),B (key: (A)=31-95%; (B)=0-30%)
"Clc1ccc(/C=C/CNC23CC4CC(CC(C4)C2)C3)cc1 [Example 200a, N-((E)-3-(4-chlorophenyl)allyl)adamantan-1-amine]",A (key: (A)=31-95%; (B)=0-30%),B (key: (A)=31-95%; (B)=0-30%)
"c1ccn2c(CNC34CC5CC(CC(C5)C3)C4)cnc2c1 [Example 203a, Adamantan-1-yl-imidazo[1,2-a]pyridin-3-ylmethyl-amine]",B (key: (A)=31-95%; (B)=0-30%),B (key: (A)=31-95%; (B)=0-30%)
"F[B-](F)(F)C[NH2+]C12CC3CC(CC(C3)C1)C2 [Example 204a, N-[(Trifluoro-4-boranyl)methyl]adamantan-1-aminium]",B (key: (A)=31-95%; (B)=0-30%),B (key: (A)=31-95%; (B)=0-30%)
"c1csc(-c2ccc(CNC3C4CC5CC(C4)CC3C5)s2)c1 (stereo not drawn) [Example 205a, N-([2,2′-bithiophen]-5-ylmethyl)adamantan-2-amine]",A (key: (A)=31-95%; (B)=0-30%),B (key: (A)=31-95%; (B)=0-30%)
